The source of these data is patent publication US20200354426A1 (MEDIMMUNE LIMITED, priority 2016, published 2020).

Numbered stars: 1 amine (or outer) side, 2 acyl side, 3 side chain; on linkers, the order of the positions; unused ones are H or OH. Side chains are listed from the residue outwards. Peptide text beside a SMILES is read from it. * marks the point of attachment. γGlu = O=C(O)[C@H](CCC(=O)[*:2])N[*:1]; Palmitoyl = CCCCCCCCCCCCCCCC(=O)*

The target of the assay is Human GLP1R (Homo sapiens, UniProt P43220). Nature of the assay: cell-based.
Chain of Human GLP1R (P43220 24-463): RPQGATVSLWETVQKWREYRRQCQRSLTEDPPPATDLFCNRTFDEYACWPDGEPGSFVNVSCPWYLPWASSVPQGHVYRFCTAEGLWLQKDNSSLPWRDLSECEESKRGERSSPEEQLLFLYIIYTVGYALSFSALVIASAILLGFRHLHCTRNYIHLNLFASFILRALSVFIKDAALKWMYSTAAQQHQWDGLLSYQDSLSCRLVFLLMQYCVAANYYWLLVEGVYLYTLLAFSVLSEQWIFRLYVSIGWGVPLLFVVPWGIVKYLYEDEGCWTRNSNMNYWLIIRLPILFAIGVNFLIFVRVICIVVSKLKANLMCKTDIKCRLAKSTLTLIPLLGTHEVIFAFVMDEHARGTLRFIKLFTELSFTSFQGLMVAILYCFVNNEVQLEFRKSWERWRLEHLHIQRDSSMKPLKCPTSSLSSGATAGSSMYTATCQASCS

Regarding `CCCCCCCCCCCCCCCC(=O)N[C@@H](CCC(=O)NCCCC[C@H](NC(=O)[C@H](CCCCN)NC(=O)[C@H](CO)NC(=O)[C@H](Cc1ccc(O)cc1)NC(=O)[C@H](CC(=O)O)NC(=O)[C@H](CO)NC(=O)[C@@H](NC(=O)[C@H](Cc1ccccc1)NC(=O)[C@@H](NC(=O)CNC(=O)[C@H](CCC(N)=O)NC(=O)[C@H](CO)NC(=O)[C@@H](N)Cc1c[nH]cn1)[C@@H](C)O)[C@@H](C)O)C(=O)N[C@@H](CC(C)C)C(=O)N[C@@H](CC(=O)O)C(=O)N[C@@H](CO)C(=O)N[C@@H](CCC(=O)O)C(=O)N[C@@H](CCCNC(=N)N)C(=O)N[C@@H](C)C(=O)N[C@@H](CCCNC(=N)N)C(=O)N[C@@H](CC(=O)O)C(=O)N[C@@H](Cc1ccccc1)C(=O)N[C@H](C(=O)N[C@@H](C)C(=O)N[C@@H](Cc1c[nH]c2ccccc12)C(=O)N[C@@H](CC(C)C)C(=O)N[C@H](C(=O)N[C@@H](C)C(=O)NCC(=O)NCC(N)=O)C(C)C)C(C)C)C(=O)O` [Peptide G730] (H-HSQGTFTSDYSKK([γGlu-Palmitoyl])LDSERARDFVAWLVAGG-NH2; N-terminus assumed), the EC50 (EC50 at the GLP1R at 0% HSA, calculated from variation in cAMP generation with HSA concentration) is 0.007 nM and the EC50 (Human GLP1R EC50, 4.4% human serum albumin) was determined as 0.455 nM.
